Laboratory results: paper PMC3638264 (Journal of Medicinal Chemistry, 2013)
Substitutions are numbered along the chain they refer to. One block for each compound: values may come before it.

Experiments:
LNCaP-AKR1C3 cells = assay: inhibition of testosterone formation in LNCaP-AKR1C3 cells; format: cell-based; details: 30 μM inhibitor, 0.1 μM Δ4-AD, 48 h
AKR1C2 = target: T1, AKR1C2 (Homo sapiens, UniProt P52895); assay: AKR1C2 inhibition, NADP+ dependent oxidation of S-tetralol; details: for IC50 Ratio 1C2/1C3: selectivity for AKR1C3 over AKR1C2
T1 sequence (P52895 1-323): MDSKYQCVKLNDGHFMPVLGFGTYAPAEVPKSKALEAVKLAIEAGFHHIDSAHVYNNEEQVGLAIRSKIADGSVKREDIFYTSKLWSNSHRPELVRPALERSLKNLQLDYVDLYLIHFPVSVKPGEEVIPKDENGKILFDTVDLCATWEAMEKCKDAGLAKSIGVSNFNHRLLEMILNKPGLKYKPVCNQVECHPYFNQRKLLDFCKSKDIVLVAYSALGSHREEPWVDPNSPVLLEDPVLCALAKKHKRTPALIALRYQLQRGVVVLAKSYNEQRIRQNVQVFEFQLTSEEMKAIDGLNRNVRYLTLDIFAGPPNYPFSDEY

AKR1C3 = target: T2, AKR1C3 (Homo sapiens, UniProt P42330); assay: AKR1C3 inhibition, NADP+ dependent oxidation of S-tetralol; details: for loss of inhibitory potency for AKR1C3: relative to indomethacin (1); for loss of AKR1C3 potency: relative to 44
T2 sequence (P42330 1-323): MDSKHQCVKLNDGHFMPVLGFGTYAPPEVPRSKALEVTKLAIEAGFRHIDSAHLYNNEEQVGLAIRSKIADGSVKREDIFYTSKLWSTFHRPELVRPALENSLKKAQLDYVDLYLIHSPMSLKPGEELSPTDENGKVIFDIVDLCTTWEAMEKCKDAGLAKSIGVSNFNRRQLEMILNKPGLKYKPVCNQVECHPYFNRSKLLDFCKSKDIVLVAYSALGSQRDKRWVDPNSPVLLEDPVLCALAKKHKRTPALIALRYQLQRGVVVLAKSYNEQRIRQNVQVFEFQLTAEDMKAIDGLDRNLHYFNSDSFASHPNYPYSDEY

AKR1C1 = target: T3, AKR1C1 (Homo sapiens, UniProt Q04828); format: biochemical; details: selectivity for AKR1C3 over AKR1C1
T3 sequence (Q04828 1-323): T1 sequence (P52895 1-323) with V38T, H47R, V54L, S87C, M151V, H170R, L172Q

AKR1C4 = target: T4, AKR1C4 (Homo sapiens, UniProt P17516); format: biochemical; details: selectivity for AKR1C3 over AKR1C4
T4 sequence (P17516 1-323): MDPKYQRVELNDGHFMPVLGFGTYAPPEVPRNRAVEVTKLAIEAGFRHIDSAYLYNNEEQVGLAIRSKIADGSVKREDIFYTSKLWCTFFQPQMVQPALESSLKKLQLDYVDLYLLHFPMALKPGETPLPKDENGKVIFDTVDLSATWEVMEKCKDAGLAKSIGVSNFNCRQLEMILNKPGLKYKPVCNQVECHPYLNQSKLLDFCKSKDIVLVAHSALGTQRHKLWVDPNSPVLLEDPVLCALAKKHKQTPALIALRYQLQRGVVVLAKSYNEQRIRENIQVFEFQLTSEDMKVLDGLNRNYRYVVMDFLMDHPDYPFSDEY

oCOX-1 = target: T5, oCOX-1 (Ovis aries, UniProt P05979); assay: continuous colorimetric COX-1 assay; format: biochemical, ovine; details: for inhibitory activity on COX-1 at highest concentration tested: 100 μM inhibitor
T5 sequence (P05979 25-600): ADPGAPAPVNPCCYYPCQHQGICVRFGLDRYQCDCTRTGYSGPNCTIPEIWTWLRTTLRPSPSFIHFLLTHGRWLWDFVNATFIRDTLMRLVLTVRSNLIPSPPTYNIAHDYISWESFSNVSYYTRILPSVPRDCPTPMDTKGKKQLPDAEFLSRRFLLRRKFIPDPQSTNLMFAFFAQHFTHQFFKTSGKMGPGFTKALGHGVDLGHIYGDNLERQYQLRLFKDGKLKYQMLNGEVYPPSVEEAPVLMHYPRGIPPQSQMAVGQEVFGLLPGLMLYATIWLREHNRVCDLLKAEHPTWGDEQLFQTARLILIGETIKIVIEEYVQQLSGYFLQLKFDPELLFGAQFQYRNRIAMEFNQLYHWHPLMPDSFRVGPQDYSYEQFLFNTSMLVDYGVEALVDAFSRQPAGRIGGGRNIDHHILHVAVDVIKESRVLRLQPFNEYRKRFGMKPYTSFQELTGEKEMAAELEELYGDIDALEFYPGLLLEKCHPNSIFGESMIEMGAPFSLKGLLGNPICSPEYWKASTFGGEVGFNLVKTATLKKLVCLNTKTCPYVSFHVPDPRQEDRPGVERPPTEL

mouse COX-2 = target: T6, mouse COX-2 (Mus musculus, UniProt Q05769); assay: discontinuous 14C-AA TLC-based COX assay, COX-2; details: for inhibition at 25 µM: read-out: wt mCOX 2 % inhib. @ 25 μM, 25 μM inhibitor, 5 μM AA; for wt mCOX 2 plateau of inhibition (P @ %): plateau at higher inhibitor concentrations
T6 sequence (Q05769 18-604): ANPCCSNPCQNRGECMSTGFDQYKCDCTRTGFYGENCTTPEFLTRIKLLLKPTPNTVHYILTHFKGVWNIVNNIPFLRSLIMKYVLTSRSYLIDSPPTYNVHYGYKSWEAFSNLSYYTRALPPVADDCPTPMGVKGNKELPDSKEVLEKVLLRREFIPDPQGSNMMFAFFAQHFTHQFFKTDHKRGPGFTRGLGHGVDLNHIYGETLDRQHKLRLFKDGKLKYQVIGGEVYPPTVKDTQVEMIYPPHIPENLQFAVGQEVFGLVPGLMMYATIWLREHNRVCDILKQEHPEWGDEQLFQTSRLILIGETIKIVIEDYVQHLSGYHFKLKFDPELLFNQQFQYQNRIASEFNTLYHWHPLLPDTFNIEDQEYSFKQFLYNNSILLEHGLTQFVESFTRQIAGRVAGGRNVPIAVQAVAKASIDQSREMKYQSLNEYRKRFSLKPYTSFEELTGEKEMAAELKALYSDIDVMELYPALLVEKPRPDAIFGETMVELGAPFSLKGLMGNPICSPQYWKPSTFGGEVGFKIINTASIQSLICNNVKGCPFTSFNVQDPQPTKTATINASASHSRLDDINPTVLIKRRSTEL

ovine COX-1 = target: T7, ovine COX-1 (Ovis aries, UniProt P05979); assay: discontinuous 14C-AA TLC-based COX assay, COX-1; details: for inhibition at 25 µM: read-out: oCOX 1 % inhib. @ 25 μM, 25 μM inhibitor, 5 μM AA
T7 sequence (P05979 25-600): T5 sequence (P05979 25-600)

Compound: COc1ccc2c(c1)c(CC(=O)O)c(C)n2C(=O)c1ccc(Cl)cc1 [Compound 1, 2-(1-(4-chlorobenzoyl)-5-methoxy-2-methyl-1H-indol-3-yl)acetic acid, reference compound]
- inhibition of testosterone formation (LNCaP-AKR1C3 cells): robust inhibition

- selectivity for AKR1C3 over AKR1C2 (AKR1C2): over 300 fold
Compound: COc1ccc(C(=O)n2c(C)c(CC(=O)O)c3cc(OC)ccc32)cc1 [Compound 4]

- loss of inhibitory potency for AKR1C3 (AKR1C3): 57 fold
Compound: COC(=O)Cc1c(C)n(C(=O)c2ccc(Cl)cc2)c2ccc(OC)cc12 [Compound 10]

- IC50 Ratio 1C2/1C3 (AKR1C2): >12
Compound: COC(=O)Cc1c(C)n(C(=O)c2ccc(OC)cc2)c2ccc(OC)cc12 [Compound 13]

- loss of inhibitory potency for AKR1C3 (AKR1C3): 22 fold
Compound: COc1ccc2c(c1)c(CC(=O)NS(C)(=O)=O)c(C)n2C(=O)c1ccc(Cl)cc1 [Compound 14, 2-(1-(4-Chlorobenzoyl)-5-methoxy-2-methyl-1H-indol-3-yl)-N-(methylsulfonyl)acetamide]

- IC50 ratio AKR1C1/AKR1C3 (value in parentheses) (AKR1C1): > 135
- IC50 ratio AKR1C4/AKR1C3 (value in parentheses) (AKR1C4): > 135
Compound: COc1ccc2c(c1)c(CC(=O)NS(=O)(=O)C(F)(F)F)c(C)n2C(=O)c1ccc(Cl)cc1 [Compound 15]

- IC50 (oCOX-1): 48.8 µM
Compound: COc1ccc2c(c1)c(CCC(=O)O)c(C)n2C(=O)c1ccc(Cl)cc1 [Compound 16, 3-(1-(4-Chlorobenzoyl)-5-methoxy-2-methyl-1H-indol-3-yl)propanoic Acid]

- loss of inhibitory potency for AKR1C3 (AKR1C3): 36 fold
Compound: COc1ccc2c(c1)cc(C)n2C(=O)c1ccc(Cl)cc1 [Compound 19]

- slope factor of inhibition dose–response curve (AKR1C3): 1
Compound: COc1ccc2c(c1)c(CC(=O)O)cn2C(=O)c1ccc(Cl)cc1 [Compound 20, 2-(1-(4-Chlorobenzoyl)-5-methoxy-1H-indol-3-yl)acetic Acid]

- IC50 Ratio 1C2/1C3 (AKR1C2): >8
Compound: COC(=O)Cc1cn(C(=O)c2ccc(Cl)cc2)c2ccc(OC)cc12 [Compound 21]

- IC50 Ratio 1C2/1C3 (AKR1C2): >20
Compound: COc1ccc2c(c1)c(CC(=O)O)cn2C(=O)c1ccc(F)cc1 [Compound 22]

- increase in AKR1C2 inhibitory potency (AKR1C2; relative to des-methyl-indomethacin (20)): 4 fold
Compound: O=C(O)Cc1cn(C(=O)c2ccc(Cl)cc2)c2ccc(F)cc12 [Compound 25]

- IC50 (oCOX-1): 2.19 µM
Compound: COc1ccc2c(c1)c(CC(=O)NS(=O)(=O)C(F)(F)F)cn2C(=O)c1ccc(Cl)cc1 [Compound 27, 2-(1-(4-Chlorobenzoyl)-5-methoxy-1H-indol-3-yl)-N-((trifluoromethyl)sulfonyl)acetamide]

- IC50 Ratio 1C2/1C3 (AKR1C2): >4
Compound: CCC(=O)Cc1cn(C(=O)OC)c2ccc(OC)cc12 [Compound 43]

- IC50 (oCOX-1): > 100 µM
- inhibition at 4 µM (mouse COX-2; read-out: wt mCOX 2 % inhib. @ 4 μM, 4 μM inhibitor, 5 μM AA): < 18%
- inhibition at 25 µM (mouse COX-2): ≤ 34%
Compound: COc1ccc2c(c1)c(C)c(CCC(=O)O)n2C(=O)c1ccc(Cl)cc1 [Compound 44, 3-(1-(4-Chlorobenzoyl)-5-methoxy-3-methyl-1H-indol-2-yl)propanoic Acid]
- inhibition of testosterone formation (LNCaP-AKR1C3 cells): robust inhibition
- inhibitory activity on COX-1 at highest concentration tested (oCOX-1): did not display significant inhibitory activity

- inhibition at 25 µM (mouse COX-2): ≤ 34%
Compound: CCc1c(CCC(=O)O)n(C(=O)c2ccc(Cl)cc2)c2ccc(OC)cc12 [Compound 47, 3-(1-(4-Chlorobenzoyl)-3-ethyl-5-methoxy-1H-indol-2-yl)propanoic Acid]

- inhibition at 25 µM (ovine COX-1): ≤ 34%
- inhibition at 25 µM (mouse COX-2): ≤ 34%
Compound: COc1ccc2c(c1)c(C)c(CC(C)(C)C(=O)O)n2C(=O)c1ccc(Cl)cc1 [Compound 48, 3-(1-(4-Chlorobenzoyl)-5-methoxy-3-methyl-1H-indol-2-yl)-2,2-dimethylpropanoic Acid]

- loss of AKR1C3 potency (AKR1C3): 2 fold
Compound: COc1ccc2c(c1)c(C)c(CC(C)C(=O)O)n2C(=O)c1ccc(Cl)cc1 (centres unmarked) [Compound 49, 3-(1-(4-Chlorobenzoyl)-5-methoxy-3-methyl-1H-indol-2-yl)-2-methylpropanoic Acid]

- IC50 (oCOX-1): > 100 µM
- loss of AKR1C3 potency (AKR1C3): 3 fold
- inhibition at 25 µM (ovine COX-1): ≤ 34%
- inhibition at 25 µM (mouse COX-2): ≤ 34%
Compound: COc1ccc2c(c1)c(C)c(CCC(=O)NS(C)(=O)=O)n2C(=O)c1ccc(Cl)cc1 [Compound 50, 3-(1-(4-Chlorobenzoyl)-5-methoxy-3-methyl-1H-indol-2-yl)-N-(methylsulfonyl)propanamide]
- inhibition of testosterone formation (LNCaP-AKR1C3 cells): robust inhibition
- inhibitory activity on COX-1 at highest concentration tested (oCOX-1): did not display significant inhibitory activity

- IC50 (oCOX-1): 0.75 µM
- wt mCOX 2 plateau of inhibition (P @ %) (mouse COX-2): 61.4%
Compound: COc1ccc2c(c1)c1c(n2C(=O)c2ccc(Cl)cc2)CCC(C(=O)O)C1 (centres unmarked) [Compound 61, 9-(4-Chlorobenzoyl)-6-methoxy-2,3,4,9-tetrahydro-1H-carbazole-3-carboxylic Acid]

- selectivity for AKR1C3 over AKR1C2 (AKR1C2): 20 fold
- IC50 Ratio 1C2/1C3 (AKR1C2): > 20
Compound: COc1ccc2c(c1)c1c(n2C(=O)c2ccc(Cl)cc2)CCC(C(=O)NS(C)(=O)=O)C1 (centres unmarked) [Compound 63, 9-(4-Chlorobenzoyl)-6-methoxy-N-(methylsulfonyl)-2,3,4,9-tetrahydro-1H-carbazole-3-carboxamide]

- IC50 (ovine COX-1): 2.4 µM
- oCOX 1 plateau of inhibition (P @ %) (ovine COX-1; plateau at higher inhibitor concentrations): 56.1%
- IC50 (mouse COX-2): 1.48 µM
- wt mCOX 2 plateau of inhibition (P @ %) (mouse COX-2): 62.6%
Compound: COc1ccc2c(c1)c1c(n2C(=O)c2ccc(Cl)cc2)CC(C(=O)O)CC1 (centres unmarked) [Compound 64, 9-(4-Chlorobenzoyl)-6-methoxy-2,3,4,9-tetrahydro-1H-carbazole-2-carboxylic Acid]
